Data from ChEMBL document CHEMBL5244275, “Geminal Diheteroatomic Motifs: Some Applications of Acetals, Ketals, and Their Sulfur and Nitrogen Homologues in Medicinal Chemistry and Drug Design” (J Med Chem, 2021).
Converted amounts (≈) assume the structure as drawn. Numbered stars: 1 amine (or outer) side, 2 acyl side, 3 side chain; on linkers, the order of the positions; unused ones are H or OH. Bridge positions count the residues as written; N and C are the ends. Square brackets hold non-standard residues; d marks the D form. Peptide text beside a SMILES is read from it. * marks the point of attachment. Orn(4R-OH,5R-OCH2CH2NMe3+) = C[N+](C)(C)CCO[C@@H](N[*:3])[C@H](O)C[C@H](N[*:1])C(=O)[*:2]; pTerphenylCO(4''-OnC5H11) = CCCCCOc1ccc(-c2ccc(-c3ccc(C(=O)*)cc3)cc2)cc1; hTyr(3S-OH,4S-OH) = N[C@H](C(=O)O)[C@H](O)[C@@H](O)c1ccc(O)cc1; Pro(3S-OH,4S-Me) = C[C@H]1CN[C@H](C(=O)O)[C@H]1O; Hyp = O=C(O)[C@@H]1C[C@@H](O)CN1

Assays:
[1] = Stability in rat plasma assessed as drug degradation measured after 44 hrs; assay type: ADME, cell-free; conditions: read-out: Drug degradation
[2] = Stability in dog plasma assessed as drug degradation measured after 44 hrs; assay type: ADME, cell-free, Canis lupus familiaris; conditions: read-out: Drug degradation
[3] = Stability in monkey plasma assessed as drug degradation measured after 44 hrs; assay type: ADME, cell-free, Macaca mulatta; conditions: rhesus monkey, read-out: Drug degradation
[4] = Stability in human plasma assessed as drug degradation measured after 44 hrs; assay type: ADME, cell-free; conditions: read-out: Drug degradation
[5] = biological target: Sodium/glucose cotransporter 2 (Homo sapiens, UniProt P31639); test: Inhibition of human SGLT2
[6] = Half-life of the compound in aqueous solution at pH 6.0; assay type: physicochemical
[7] = biological target: Somatostatin receptor type 2 (Homo sapiens, UniProt P30874); test: Inhibition of human SSTR2
[8] = Oral bioavailability in dog; assay type: ADME, organism-based, Canis lupus familiaris; conditions: in vivo
HEp-2 = test: Anticancer activity against human HEp-2 cells; assay type: functional, cell-based
CCRF-CEM = test: Anticancer activity against human CCRF-CEM cells; assay type: functional, cell-based
K562 = test: Anticancer activity against human K562 cells; assay type: functional, cell-based
L1210 = test: Anticancer activity against mouse L1210 cells; assay type: functional, cell-based
[9] = Stability of the compound assessed as compound hydrolysis by measuring relative rate constant by titrimetric method; assay type: physicochemical
[10] = Oral bioavailability in rat; assay type: ADME, organism-based; conditions: in vivo
[11] = Oral bioavailability in monkey; assay type: ADME, organism-based, Macaca mulatta; conditions: rhesus monkey, in vivo
[12] = Tmax in rhesus monkey at 40 mg/kg, po; assay type: ADME, organism-based, Macaca mulatta; conditions: in vivo
[13] = Terminal half-life in rhesus monkey at 40 mg/kg, po; assay type: ADME, organism-based, Macaca mulatta; conditions: in vivo, read-out: beta t1/2 (converted)
Candida albicans [14] = test: Antifungal activity against Candida albicans GS; assay type: functional, organism-based
Candida albicans [15] = test: Fungicidal activity against Candida albicans; assay type: functional
[16] = Clearance in Chimpanzee at 0.5 mg/kg, iv bolus injection; assay type: ADME, organism-based, Pan troglodytes; conditions: in vivo
[17] = Clearance in Chimpanzee at 0.5 mg/kg administered as iv infusion; assay type: ADME, organism-based, Pan troglodytes; conditions: in vivo
in vivo [18] = conditions: chimpanzee, iv, 0.5 mg/kg
in vivo [19] = conditions: chimpanzee, iv, 0.5 mg/kg; remark: listed apart in the source
[20] = Aqueous stability of the compound at pH 7 assessed as half-life; assay type: physicochemical; conditions: aqueous solution
[21] = Half-life in human; assay type: ADME
[22] = Tmax in human; assay type: ADME
[23] = Aqueous solubility of the compound at pH 1.3 to 8; assay type: physicochemical; conditions: buffer
[24] = Stability of the compound at pH 1.3 assessed as degradation half life; assay type: physicochemical; conditions: buffer
[25] = Stability of the compound at pH 7.30 assessed as degradation half life; assay type: physicochemical; conditions: buffer, pH 7.3
[26] = Oral bioavailability in mouse; assay type: ADME, organism-based; conditions: in vivo
[27] = Half-life in rat at 10 mg/kg, po; assay type: ADME, organism-based; conditions: in vivo
[28] = biological target: T1, Neutrophil elastase (Homo sapiens) (UniProt P08246); test: Time-dependent inhibition of human leukocyte elastase assessed as observed binding constant
T1 sequence (whole entry): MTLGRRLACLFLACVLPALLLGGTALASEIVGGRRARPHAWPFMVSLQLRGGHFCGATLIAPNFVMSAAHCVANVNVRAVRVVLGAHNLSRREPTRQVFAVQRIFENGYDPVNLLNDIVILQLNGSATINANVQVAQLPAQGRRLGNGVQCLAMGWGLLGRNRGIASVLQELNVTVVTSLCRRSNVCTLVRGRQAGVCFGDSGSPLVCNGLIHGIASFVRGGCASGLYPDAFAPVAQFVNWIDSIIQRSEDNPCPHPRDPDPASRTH

[29] = Terminal half-life in iv dosed rat; assay type: ADME, organism-based; conditions: in vivo, read-out: beta t1/2 (converted)
[30] = Terminal half-life in iv dosed rhesus monkey; assay type: ADME, organism-based, Macaca mulatta; conditions: in vivo, read-out: beta t1/2 (converted)
[31] = biological target: Sterol O-acyltransferase 1 (Homo sapiens, UniProt P35610); test: Inhibition of ACAT in human THP-1; assay type: cell-based
[32] = biological target: Muscarinic acetylcholine receptor M2 (Homo sapiens, UniProt P08172); test: Antagonist activity at muscarinic M2 receptor (unknown origin) assessed as inhibition constant
[33] = Stability of the compound at pH 2 assessed as half-life; assay type: physicochemical; conditions: buffer
Plasmodium falciparum = test: Antiplasmodial activity against Plasmodium falciparum FCB1 assessed as inhibition of parasite growth; assay type: functional, organism-based
[34] = Antiplasmodial activity against Plasmodium berghei NK 173 infected in ICR (CD-1) mouse assessed as inhibition of parasite growth administered intraperitoneally for four days; conditions: NK 173, 96 h
[35] = Oral bioavailability in rat relative to urinary excretion; assay type: ADME, organism-based; conditions: urine
[36] = Oral bioavailability in rat relative to plasma exposure; assay type: ADME, organism-based
[37] = biological target: Amyloid-beta precursor protein (Homo sapiens, UniProt P05067); test: Inhibition of amyloid beta (1 to […] ) (unknown origin)
[38] = Ratio of drug concentration in brain to plasma in mouse at 30 mg/kg, po measured after 6 hrs; assay type: ADME, organism-based; conditions: read-out: BPR
[39] = Stability of the compound in 20% aqueous dioxane solution at 30 degreeC assessed as compound hydrolysis by measuring rate constant; assay type: physicochemical; conditions: buffer
[40] = Stability of the compound in 50% dioxane solution at 30 degreeC assessed as compound hydrolysis by measuring rate constant; assay type: physicochemical
[41] = Clearance in rat plasma assessed as half-life; assay type: ADME, cell-free
[42] = Clearance in dog plasma assessed as half-life; assay type: ADME, cell-free, Canis lupus familiaris
Mus musculus = organism: Mus musculus; test: Analgesic activity in mouse assessed as protection against phenylbenzoquinone-induced writhing; assay type: functional
[43] = Drug metabolism at pH 2 assessed as parent compound remaining measured after 120 mins; assay type: physicochemical; conditions: read-out: Drug metabolism
Homo sapiens = organism: Homo sapiens; test: Inhibition of Leukotriene B4 production in human whole blood; assay type: functional
[44] = Inhibition of Leukotriene B4 production in human blood Polymorphonuclear neutrophil cells; assay type: functional, tissue-based

Chain of Sodium/glucose cotransporter 2 (P31639 whole entry): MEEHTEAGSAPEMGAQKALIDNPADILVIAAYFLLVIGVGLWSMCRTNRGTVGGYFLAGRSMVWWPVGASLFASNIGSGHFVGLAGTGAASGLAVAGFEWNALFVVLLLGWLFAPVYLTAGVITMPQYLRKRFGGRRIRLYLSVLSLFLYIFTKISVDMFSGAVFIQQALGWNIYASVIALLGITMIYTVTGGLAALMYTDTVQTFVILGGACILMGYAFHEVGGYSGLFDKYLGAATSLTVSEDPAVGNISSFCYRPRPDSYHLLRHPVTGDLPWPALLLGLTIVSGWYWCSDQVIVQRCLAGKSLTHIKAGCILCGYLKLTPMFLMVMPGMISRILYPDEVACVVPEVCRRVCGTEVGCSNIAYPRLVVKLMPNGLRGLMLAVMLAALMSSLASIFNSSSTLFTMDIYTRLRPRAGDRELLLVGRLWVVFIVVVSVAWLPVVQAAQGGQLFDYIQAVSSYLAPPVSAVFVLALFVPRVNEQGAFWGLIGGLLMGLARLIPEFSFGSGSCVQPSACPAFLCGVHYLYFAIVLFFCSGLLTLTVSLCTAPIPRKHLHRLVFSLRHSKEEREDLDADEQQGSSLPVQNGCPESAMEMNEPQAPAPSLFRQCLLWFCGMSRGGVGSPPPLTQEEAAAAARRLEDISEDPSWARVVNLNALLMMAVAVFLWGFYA
Chain of Somatostatin receptor type 2 (P30874 whole entry): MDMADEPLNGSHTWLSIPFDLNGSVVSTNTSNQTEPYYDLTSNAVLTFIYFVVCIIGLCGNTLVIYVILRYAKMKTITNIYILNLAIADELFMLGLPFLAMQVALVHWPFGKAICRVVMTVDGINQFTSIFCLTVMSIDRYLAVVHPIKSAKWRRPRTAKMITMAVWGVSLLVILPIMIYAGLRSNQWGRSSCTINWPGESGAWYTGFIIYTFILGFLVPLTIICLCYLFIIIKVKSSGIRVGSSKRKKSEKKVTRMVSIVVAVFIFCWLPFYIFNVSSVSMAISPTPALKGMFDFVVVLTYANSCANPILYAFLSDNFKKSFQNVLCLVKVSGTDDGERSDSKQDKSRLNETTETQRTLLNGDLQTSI
Chain of Sterol O-acyltransferase 1 (P35610 whole entry): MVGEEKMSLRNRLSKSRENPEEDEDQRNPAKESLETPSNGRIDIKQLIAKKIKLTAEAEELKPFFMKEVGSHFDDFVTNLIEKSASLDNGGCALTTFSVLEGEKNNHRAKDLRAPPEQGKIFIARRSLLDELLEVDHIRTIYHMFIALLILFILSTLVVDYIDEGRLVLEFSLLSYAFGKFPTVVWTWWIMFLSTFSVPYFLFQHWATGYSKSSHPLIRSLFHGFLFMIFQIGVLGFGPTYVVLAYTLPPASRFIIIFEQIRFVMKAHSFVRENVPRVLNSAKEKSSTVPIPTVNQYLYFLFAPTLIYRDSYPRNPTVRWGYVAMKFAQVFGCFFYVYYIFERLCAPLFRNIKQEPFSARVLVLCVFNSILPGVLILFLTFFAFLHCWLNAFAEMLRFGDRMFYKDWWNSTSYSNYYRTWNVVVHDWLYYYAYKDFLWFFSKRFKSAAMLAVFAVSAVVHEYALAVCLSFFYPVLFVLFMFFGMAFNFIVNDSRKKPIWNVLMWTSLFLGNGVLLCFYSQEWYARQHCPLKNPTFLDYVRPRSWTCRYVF
Chain of Muscarinic acetylcholine receptor M2 (P08172 whole entry): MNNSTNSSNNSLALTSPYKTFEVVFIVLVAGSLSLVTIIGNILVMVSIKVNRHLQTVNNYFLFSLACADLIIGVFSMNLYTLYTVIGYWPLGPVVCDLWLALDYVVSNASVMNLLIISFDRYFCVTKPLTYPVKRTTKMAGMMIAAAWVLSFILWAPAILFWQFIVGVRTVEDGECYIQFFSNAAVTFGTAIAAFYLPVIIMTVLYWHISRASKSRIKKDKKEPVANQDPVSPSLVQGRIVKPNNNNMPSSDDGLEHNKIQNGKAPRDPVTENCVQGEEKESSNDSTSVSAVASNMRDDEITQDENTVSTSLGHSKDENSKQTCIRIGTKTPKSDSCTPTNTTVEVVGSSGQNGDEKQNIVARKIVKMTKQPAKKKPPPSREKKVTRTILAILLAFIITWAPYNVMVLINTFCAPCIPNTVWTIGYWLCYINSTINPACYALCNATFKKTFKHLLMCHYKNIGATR
Chain of Amyloid-beta precursor protein (P05067 whole entry): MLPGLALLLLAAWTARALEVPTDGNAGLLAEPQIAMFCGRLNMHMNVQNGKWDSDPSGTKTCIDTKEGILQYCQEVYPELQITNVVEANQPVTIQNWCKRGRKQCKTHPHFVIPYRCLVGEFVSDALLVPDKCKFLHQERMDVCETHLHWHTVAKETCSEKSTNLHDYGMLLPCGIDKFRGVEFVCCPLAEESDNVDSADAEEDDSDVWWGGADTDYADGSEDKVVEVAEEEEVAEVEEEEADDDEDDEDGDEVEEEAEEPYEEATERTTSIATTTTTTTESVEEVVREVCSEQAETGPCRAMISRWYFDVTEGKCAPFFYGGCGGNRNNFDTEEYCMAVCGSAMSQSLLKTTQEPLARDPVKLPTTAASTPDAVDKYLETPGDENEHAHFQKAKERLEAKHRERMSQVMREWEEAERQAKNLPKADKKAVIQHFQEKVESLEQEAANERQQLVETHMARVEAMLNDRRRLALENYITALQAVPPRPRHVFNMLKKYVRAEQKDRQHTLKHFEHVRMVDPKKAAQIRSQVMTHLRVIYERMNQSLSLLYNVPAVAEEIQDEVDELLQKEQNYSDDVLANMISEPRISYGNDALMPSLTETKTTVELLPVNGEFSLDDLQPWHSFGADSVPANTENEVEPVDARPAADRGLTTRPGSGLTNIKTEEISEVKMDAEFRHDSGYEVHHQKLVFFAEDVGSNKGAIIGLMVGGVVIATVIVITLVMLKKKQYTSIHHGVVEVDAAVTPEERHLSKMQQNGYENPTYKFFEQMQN

Structure (SMILES): CCCCCOc1ccc(-c2ccc(-c3ccc(C(=O)N[C@H]4C[C@@H](O)[C@@H](OCC[N+](C)(C)C)NC(=O)[C@@H]5[C@@H](O)[C@@H](C)CN5C(=O)[C@H]([C@@H](C)O)NC(=O)[C@H]([C@H](O)[C@@H](O)c5ccc(O)cc5)NC(=O)[C@@H]5C[C@@H](O)CN5C(=O)[C@H]([C@@H](C)O)NC4=O)cc3)cc2)cc1 [REZAFUNGIN] ({pTerphenylCO(4''-OnC5H11)}-[Orn(4R-OH,5R-OCH2CH2NMe3+)]T[Hyp][hTyr(3S-OH,4S-OH)]T[Pro(3S-OH,4S-Me)]; lactam 1-C)
- metabolised at 44 h [1]: 9%
- metabolised at 44 h [2]: 21%
- metabolised at 44 h [3]: 6%
- metabolised at 44 h [4]: 7%

Structure (SMILES): CCOc1ccc(Cc2cc([C@]34CO[C@](CO)(O3)[C@@H](O)[C@H](O)[C@H]4O)ccc2Cl)cc1
- IC50 [5]: 714 nM

Structure (SMILES): CO[C@@]1(NC(=O)CCC[C@@H](N)C(=O)O)C(=O)N2C(C(=O)O)=C(COC(N)=O)CS[C@@H]21
- half-life [6]: 459 h

Structure (SMILES): C[C@@H](c1c[nH]c2ccccc12)[C@H](C(=O)N[C@@H](CCCCN)C(=O)OC(C)(C)C)N1CCN(CCCc2ccccc2)C1=O
- Ki [7]: 3.6 nM
- bioavailability [8]: 5%

Structure (SMILES): Nc1nc(F)nc2c1ncn2[C@@H]1O[C@H](COP(=O)(O)O)[C@@H](O)[C@@H]1O [FLUDARABINE PHOSPHATE]
- IC50 (HEp-2): 9000 nM
- IC50 (CCRF-CEM): 400 nM
- IC50 (K562): 150 nM
- IC50 (L1210): 3000 nM

Structure (SMILES): CC1(C)OCCO1
- K [9]: 5.4 10^4No_unit

Structure (SMILES): CCC[C@@H](NC(=O)N1C(=O)C(CC)(CC)[C@@H]1Oc1ccc(C(=O)N2CCN(C)CC2)cc1)c1ccc2c(c1)OCO2
- bioavailability [10]: 65%
- bioavailability [11]: 39%
- Tmax [12]: 8 h
- half-life [13]: 6 h

Structure (SMILES): CC[C@H](C)C[C@H](C)CCCCCCCCC(=O)N[C@H]1C[C@@H](O)[C@@H](OCCN)NC(=O)[C@@H]2[C@@H](O)CCN2C(=O)[C@H]([C@H](O)CCN)NC(=O)[C@H]([C@H](O)[C@@H](O)c2ccc(O)cc2)NC(=O)[C@@H]2C[C@@H](O)CN2C(=O)[C@H]([C@@H](C)O)NC1=O
- IC50 (Candida albicans [14]): 1 nM
- MFC (Candida albicans [15]): < 0.06 µg/mL
- clearance [16]: 0.58 mL/min/kg
- clearance [17]: 0.56 mL/min/kg
- half-life (in vivo [18]): 2.8 h
- half-life (in vivo [19]): 2.6 h

Structure (SMILES): CC1(C)S[C@@H]2[C@H](NC(=O)[C@H](N)c3ccccc3)C(=O)N2[C@H]1C(=O)O [AMPICILLIN]
- half-life [20]: 0.25 h

Structure (SMILES): CN1CCN(C(=O)O[C@H]2c3nccnc3C(=O)N2c2ccc(Cl)cn2)CC1 [ESZOPICLONE]
- half-life [21]: 5 h
- Tmax [22]: 1 h

Structure (SMILES): COc1cc([C@@H]2c3cc4c(cc3[C@@H](O[C@@H]3O[C@@H]5CO[C@@H](C)O[C@H]5[C@H](O)[C@H]3O)[C@H]3COC(=O)[C@H]23)OCO4)cc(OC)c1O [ETOPOSIDE]
- solubility [23]: 116 µg/mL (≈ 197 µM)
- half-life [24]: 2.88 h
- half-life [25]: 27.7 h

Structure (SMILES): CN1CCN(C2CCN(C(=O)CC3CCC4(CC3)OOC3(OO4)C4CC5CC(C4)CC3C5)CC2)CC1 (stereo unspecified)
- bioavailability [26]: 42%
- bioavailability [10]: 38%
- half-life [27]: 2.4 h

Structure (SMILES): CCC[C@@H](NC(=O)N1C(=O)C(CC)(CC)[C@@H]1Oc1ccc(CC(=O)O)cc1)c1ccc(C)cc1
- bioavailability [10]: 100%
- bioavailability [11]: 23%
- K [28]: 6.2 10^5/M/s
- half-life [29]: 2.3 h
- half-life [30]: 5.8 h
- half-life [13]: 6 h

Structure (SMILES): Cc1cc(C)n(CCCC[C@H]2CO[C@H](c3nc(-c4ccccc4)c(-c4ccccc4)[nH]3)OC2)n1
- IC50 [31]: > 500 nM

Structure (SMILES): CCCS(=O)(=O)N1CCC(N2CCC(C3(c4ccc(S(=O)(=O)c5ccc6c(c5)OCO6)cc4)CCCO3)CC2)CC1 (stereo unspecified)
- Ki [32]: 5 nM

Structure (SMILES): CO[C@H]1O[C@@H]2O[C@@]3(C)CC[C@H]4[C@H](C)CC[C@@H]([C@H]1C)[C@@]24OO3
- half-life [33]: 11 h
- IC50 (Plasmodium falciparum): 3.5 nM
- ED50 [34]: 8.4 µmol/kg

Structure (SMILES): Nc1ccn([C@@H]2CO[C@H](CO)O2)c(=O)n1 [TROXACITABINE]
- bioavailability [35]: 41%
- bioavailability [36]: 37%

Structure (SMILES): CCC(=O)O[C@@H]([C@H]1C[C@@H](C)[C@H]2[C@H](O1)[C@H](O)[C@@]1(C)[C@@H]3CC[C@H]4C(C)(C)[C@@H](O[C@H]5CN(C6CN(C)C6)CCO5)CC[C@@]45C[C@@]35CC[C@]21C)C(C)(C)O
- bioavailability [26]: 45%
- IC50 [37]: 100 nM
- Kp at 6 h [38]: 0.55

Structure (SMILES): COc1ccc(C2(c3ccc(OC)cc3)OCCO2)cc1
- K [39]: 8.5 10^-1/M/s
- K [40]: 1.2 10^-1/M/s

Structure (SMILES): CCOc1ccc(Cc2cc([C@]34OC[C@](CO)(O3)[C@@H](O)[C@H](O)[C@H]4O)ccc2Cl)cc1 [ERTUGLIFLOZIN]
- half-life [41]: 4.1 h
- half-life [42]: 7.6 h

Structure (SMILES): c1ccc([C@]23OC[C@H](CCn4c2nc2ccccc24)O3)cc1
- ED50 (Mus musculus): 30 mg/kg
- remaining at 2 h [43]: 93.5%

Structure (SMILES): O=C1OCc2c1cc1cc(OCc3cccc(C4(O)CC5COC(C4)O5)c3)ccc1c2-c1ccoc1 (stereo unspecified)
- IC50 (Homo sapiens): 180 nM
- IC50 [44]: 7 nM
